In brackets after ≈: the same amount, converted by molar mass. Read-outs that look alike come from different tables or passages of the source.
How the values were obtained:
[1] = 0.98 µM, pH 7.2
Experimental: Liver microsomal stability
(§1) Liver microsomes from mouse (Xenotech), human (Corning) rat (Xenotech) and dog (Xenotech)
(§2) were prepared in potassium phosphate buf fer (100 mM) pH 7. 2. Experimental compounds were
(§3) dissolved in DMSO (100%) to a stock concentration of 10 mmol. A working compound solution
(§4) was made by diluting 5 µL of compound stock into 495 µL of acetonitrile (100%) to the final
(§5) concentration of compound (100 µM) and acetonitrile (99%). Similarly, positive control
(§6) compounds (Testosterone, Dichlofenac, and Propafenone) were dissolved in DMSO (100% to a
(§7) stock concentration of 10 mM in DMSO, and were diluted with 495 µL of acetonitrile (100%) to
(§8) the final concentration of compound (100 µM) and acetonitrile (99%). NADPH•4Na was dissolved
(§9) into a 10 mM MgCl2 solution (10 unit/mL) generating as a 10x cofactor stock. Pre-warmed
(§10) incubation plates were filled with 445 µL potassium phosphate buffer and incubated for 10 min at
(§11) 37°C with constant shaking. Liver microsomes (54 µL) liver and NADPH stock (6 µL) were added
(§12) to the plates. Working solution of compounds (5 µL) was added into the incubation plates
(§13) containing microsomes and mixed thoroughly before incubating at 37°C for 60 min under constant
(§14) shaking at 100 rpm. Reactions were stopped by the addition of 100 µl cold acetonitrile (100%) […]
(§15) prior to metabolite quantification by LC-MS/MS a nalysis. […]

[2] = tested on: Mtb in murine macrophages; test: Mtb replication in macrophages (intramacrophage EC50); format: cell-based; conditions: Mycobacterium tuberculosis, Macrophage
[3] = tested on: Mtb; test: microbe, parasite or virus in culture; format: cell-based, Mycobacterium tuberculosis; conditions: Mycobacterium tuberculosis, cholesterol media
[4] = 0.98 µM, pH 7.2; remark: listed apart in the source
Experimental: Liver microsomal stability
as §1, §2, §3, §4, §5, §6, §7, §8, §9, §10, §11, §12, §13, §14, §15

[5] = in vitro; conditions: CD-1, mouse, plasma
[6] = in vitro; conditions: human
[7] = physchem; conditions: pH 6.8, aqueous buffer, kinetic from dmso stock
[8] = 0.98 µM, pH 7.2; remark: listed apart in the source
Experimental: Liver microsomal stability
as §1, §2, §3, §4, §5, §6, §7, §8, §9, §10, §11, §12, §13
(§16) shaking at 100 rpm. Reactions were stopped by the addition of 100 µl cold acetonitrile (100%)
(§17) containing the internal standards tolbutamide (200 ng/mL) and labetalol (200 ng/mL). All plates
(§18) were shaken for 10 min, then centrifuged at 4000 rpm for 20 minutes at 4°C. The cell free
(§19) supernatant was transferred into HPLC water and mixed by shaking the plate for 10 min minutes
(§20) prior to metabolite quantification by LC-MS/MS a nalysis.
(§21) The equation of first order kinetics was used to calculate T1/2 and CLin t(mic ) (µL/min/mg):
Equation of first order kinetics:
(§22) <=@(#<S) X= Y<@Z[ \] #_⁄#‘ #<SZ[a[#$b cZ[@L<= <= ZL$S@<[=
𝐶𝐿 = 𝐶𝐿 ∙ #_ #<SZ[a[#La ∙ _ b<Y LZ
(§23) <=@(b<Y LZ) <=@(#<S) _ b<Y LZ D_ e[fg hL<_i@
(§24) T1/2 is half life and CLin t ( mic ) is the intrinsic clearance
(§25) CLin t ( mic ) = 0.693/half life/mg microsome protein per mL
(§26) CLin t(l iv e r) = CLin t ( mic ) * mg microsomal protein/g liver weight * g liver weight/kg body weight
Extraction ratio calculation
(§27) Extraction ratio (ER) = CLH/QH= CLint(liver) / (CLint(liver) + Qh)
Qh is Hepatic Blood Flow (mL/min/kg)

[9] = 0.98 µM, pH 7.2; remark: listed apart in the source
Experimental: Liver microsomal stability
as §1, §2, §3, §4, §5, §6, §7, §8, §9, §10, §11, §12, §13, §16, §17, §18, §19, §20, §21
Equation of first order kinetics:
as §22
𝐶𝐿 = 𝐶𝐿 ∙ #_ #<SZ[a[#La ∙ _ b<Y LZ
as §23, §24, §25, §26
Extraction ratio calculation
as §27
Qh is Hepatic Blood Flow (mL/min/kg)

[10] = tested on: CYP1A2, CYP2C9, CYP2C19, CYP2D6, CYP3A4; test: in vitro; conditions: human, pH 7.2
[11] = in vitro; conditions: human; remark: listed apart in the source
[12] = target: hERG potassium channel (Homo sapiens, UniProt Q12809); test: Manual patch clamp assay for hERG inhibition
Chain of hERG potassium channel (Q12809 whole entry): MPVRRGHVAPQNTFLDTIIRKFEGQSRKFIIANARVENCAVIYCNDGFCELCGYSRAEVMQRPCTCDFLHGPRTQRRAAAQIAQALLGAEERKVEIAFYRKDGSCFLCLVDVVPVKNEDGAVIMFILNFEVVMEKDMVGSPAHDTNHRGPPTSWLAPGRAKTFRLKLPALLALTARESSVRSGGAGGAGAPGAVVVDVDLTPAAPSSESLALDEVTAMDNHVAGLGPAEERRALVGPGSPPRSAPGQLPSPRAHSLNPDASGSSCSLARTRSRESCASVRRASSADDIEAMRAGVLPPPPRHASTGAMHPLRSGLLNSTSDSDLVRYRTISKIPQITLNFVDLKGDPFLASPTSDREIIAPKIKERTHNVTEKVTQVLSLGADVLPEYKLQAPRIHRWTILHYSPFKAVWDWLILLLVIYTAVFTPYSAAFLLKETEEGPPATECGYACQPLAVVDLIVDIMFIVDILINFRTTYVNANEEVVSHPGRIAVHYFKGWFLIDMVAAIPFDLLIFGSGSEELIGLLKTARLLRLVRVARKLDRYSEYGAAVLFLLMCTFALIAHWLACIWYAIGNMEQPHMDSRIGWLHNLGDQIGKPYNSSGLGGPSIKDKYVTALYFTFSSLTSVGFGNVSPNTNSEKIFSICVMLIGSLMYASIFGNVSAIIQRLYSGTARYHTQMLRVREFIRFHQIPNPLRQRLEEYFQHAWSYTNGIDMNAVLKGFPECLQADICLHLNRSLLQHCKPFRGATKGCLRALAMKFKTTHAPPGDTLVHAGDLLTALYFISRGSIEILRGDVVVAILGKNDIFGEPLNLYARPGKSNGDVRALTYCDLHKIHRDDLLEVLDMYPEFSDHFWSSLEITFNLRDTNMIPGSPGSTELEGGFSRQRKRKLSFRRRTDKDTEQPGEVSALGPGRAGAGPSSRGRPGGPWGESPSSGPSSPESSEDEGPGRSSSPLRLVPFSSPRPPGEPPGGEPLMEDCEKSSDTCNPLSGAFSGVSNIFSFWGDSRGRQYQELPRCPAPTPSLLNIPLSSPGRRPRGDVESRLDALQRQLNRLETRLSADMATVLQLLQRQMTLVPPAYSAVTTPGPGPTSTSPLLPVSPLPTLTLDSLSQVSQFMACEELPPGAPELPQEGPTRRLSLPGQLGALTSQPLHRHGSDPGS

[13] = tested on: Mtb; test: microbe, parasite or virus in culture; format: cell-based; conditions: Mycobacterium tuberculosis; read-out: 7H9 OADC EC50
[14] = in vitro; conditions: human, plasma
[15] = tested on: Mtb; test: microbe, parasite or virus in culture; format: cell-based; conditions: Mycobacterium tuberculosis; media with cholesterol and acetate
[16] = tested on: Mtb; format: cell-based, Mycobacterium tuberculosis; conditions: media containing fatty acid
[17] = tested on: Mtb; format: cell-based, Mycobacterium tuberculosis; conditions: 10 μM
[18] = tested on: Erdman Mtb; test: Mouse infection, BALB/c; format: in vivo, BALB/c mice
[19] = tested on: MKR strain of Mtb; parameters: method as in PMID 33542438; conditions: infected macrophages ref 13; cited from earlier work
[20] = tested on: Mtb; test: Quantification of bacterial cAMP in Mtb; format: cell-based, Mycobacterium tuberculosis
[21] = tested on: Erdman Mtb; test: Mouse infection, C3HeB/FeJ; format: in vivo, C3HeB/FeJ mice; conditions: 50 mg/kg oral once-daily weeks 4-8, intranasal infection
[22] = tested on: Mtb; format: cell-based, Mycobacterium tuberculosis; conditions: for 14CO2 release from [4-14C]-cholesterol: 10 μM
[23] = 50 mg/kg oral once-daily weeks 4-8, intranasal infection, BALB/c
[24] = 30mg/kg oral once-daily weeks 4-8, intranasal infection, BALB/c

SMILES | ER dog [1] | EC50 [2] [µM] | EC50 ([3]; read-out: Cholesterol EC50) [µM] | ER rat [4] | fraction unbound at 4 h [5] | CC50 at 72 h [6] [µM] | solubility at 24 h [7] [µM] | ER mouse [8] | ER human [9] | IC50 at 10 min [10] [µM] | CC50 at 72 h [11] [µM] | IC50 [12] [µM] | EC50 [13] [µM] | fraction unbound at 4 h [14] | EC50 [15] [µM] | further results
Cn1ncnc1CC(=O)N1CC2CC1CC2c1nc(-c2ccc(Cl)c(F)c2)no1 (centres unmarked) [mCLF178] | 0.3 | > 20 | 0.083 | 0.2 | 0.116 | > 20 | 186 (≈ 77.5 µg/mL) | 0.3 | 0.3 | > 30 | > 20 | 22.9 | > 50 | 0.111 |  | 
Cc1nonc1CC(=O)N1CCC(c2nc(-c3ccc(F)cc3)no2)CC1 [mCIS635] |  | 0.27 | 0.15 |  | 0.056 | > 20 | 34.4 (≈ 12.8 µg/mL) | 0.4 | 0.3 | > 50 | > 20 | 9.5 | > 50 |  | > 50 | 
Cc1nonc1CC(=O)N1CCC(n2nnc(-c3ccc(F)cc3)n2)CC1 [V-59, 1-(4-(5-(4-fluorophenyl)-2H-tetrazol-2-yl)piperidin-1-yl)-2-(4-methyl-1,2,5-oxadiazol-3-yl)ethan-1-one] |  | 0.3 |  |  | 0.173 | > 20 | 4.63 (≈ 1.72 µg/mL) | 0.3 | 0.3 | > 30 | > 20 | 8.9 | > 50 |  | > 50 | 14CO2 released from breakdown of [U-14C]-palmitate [16]: no measurable effect; EC50 ([3]; read-out: EC50 in cholesterol media): 0.7 µM; decrease of prpD'::GFP signal ([17]; CompFull strain): ~ 90%; decrease of prpD'::GFP signal ([17]; WT): ~ 50%; prpD'::GFP signal ([17]; ΔRv1625c or CompD204 strains, cholesterol media or macrophage infection): did not impact; reduction in lung CFUs [18, 23]: ~ 0.4 log10; reduction of extent of lung inflammation [18, 23]: ~ 50%; intracellular survival of MKR strain [19]: selectively reduced intracellular survival; cAMP induction [20]: ~ 70 fold; cAMP induction ([20]; CompFull strain, 24 hours): ~ 140 fold; reduction in lung CFUs [21]: ~ 0.5 log10; decrease of 14CO2 release from [4-14C]-cholesterol [22]: ~ 89%; 14CO2 release from [4-14C]-cholesterol ([22]; CompD204 strain lacking cyclase domain): did not prevent; 14CO2 release from [4-14C]-cholesterol ([22]; CompFull strain): inhibited
Cn1ncnc1CC(=O)N1CCC(c2nc(-c3ccc(Cl)c(Cl)c3)no2)CC1 [mCLB073, 1-(4-(3-(3,4-dichlorophenyl)-1,2,4-oxadiazol-5-yl)-1-piperidinyl)-2-(2-methyl-2H-1,2,4-triazol-3-yl)-1-ethanone] | 0.3 | 1.2 | 0.027 | 0.2 | 0.037 | > 20 | 160 (≈ 67.4 µg/mL) | 0.3 | 0.3 | > 50 | > 20 | 13.8 | > 50 | 0.024 | > 50 | decrease of extent of lung pathology [18, 24]: ~ 45%; reduction in lung CFUs [18, 24]: ~ 0.4 log10; bacterial burden in the lungs when added to a sub-optimal dose of rifampicin ([18]; mouse, in vivo): did not increase the bacterial burden; reduction in lung CFUs ([18]; mouse, in vivo): ~ 0.4 log10; cAMP synthesis ([20]; Figs 3B and S2C): activates cAMP synthesis

Source: publication PMC8856561, “Pharmacological and genetic activation of cAMP synthesis disrupts cholesterol utilization in Mycobacterium tuberculosis” (PLoS Pathogens, 2022)
